Measurements: patent US20040077674A1, “Mappicine analogs, intermediates in the synthesis of mappicine analogs and methods of synthesis of mappicine analogs” (priority 2002, published 2004)

Each molecule was assayed against T1, RNase H activity of HIV reverse transcriptase (Human immunodeficiency virus type 1 group M subtype B, UniProt P03366) (assay: Fluorescence (FRET)-based RNase H assay of HIV reverse transcriptase). Details: 20 μM inhibitor concentration.
T1 construct: 2.5 nM of the p51/p66 RT heterodimer in the assay; made in house
Type: biochemical, HIV-1
Procedure: Recently, a fluorescence-based assay to perform screens in search of HIV RNase H inhibitors has been developed. The assay, which is carried out in 96-well microplates and is adaptable to robotics, is the first high-throughput screen for RNase H and is described in further detail in the Experimental section. HIV-1 RT and human RNase H were cloned, and thus comparative analysis of inhibitor action could be conducted simultaneously.
The assay for RNase H activity of HIV reverse transcriptase was the fluorescence-based assay described in detail in the Experimental section and discussed in U.S. Provisional Patent Application Serial No. 60/318,359. Assays were carried out in the absence and in the presence of mappicine analogs (10 μM or 20 μM final concentration). The results are reported as % residual activity, which is the RNase H activity of the enzyme in the presence of the mappicine analog divided by the RNase H activity of the enzyme in the absence of the mappicine analog, multiplied by 100. Alternatively, the results are reported as % inhibition, which is calculated as the ratio of the RNase H activity of the enzyme in the presence of the mappicine analog to the enzyme activity in the absence of the mappicine analog, multiplied by 100, and then subtracting this number from 100.
Assay for Ribonuclease H Activity Based on Fluorescence Resonance Energy Transfer (FRET)
Preparation of the Fluorophore-RNA/Quencher-DNA Hybrid Duplex Substrate.
The RNA/DNA hybrid duplex substrate for use in the assay comprises an RNA oligonucleotide of sequence 5′-GAU CUG AGC CUG GGA GCU-3′, modified at the 3′-end with Aminolink-2 and derivatized with fluorescein isothiocyanate, to provide a modified RNA oligonucleotide of the sequence 5′-GAU CUG AGC CUG GGA GCU-fluorescein-3′, annealed to a complementary DNA oligonucleotide of the sequence 5′-AGC TCC CAG GCT CAG ATC-3′ modified at the 5′-end with Aminolink-2 and derivatized with the FRET acceptor DABCYL succinimidyl ester, to provide a modified DNA oligonucleotide of the sequence 5′-DABCYL-AGC TCC CAG GCT CAG ATC-3′.
To prepare the 3′-fluorescein-RNA/5′-DABCYL-DNA hybrid duplex substrate, a known amount of 3′-fluorescein-RNA was dissolved in 20 mM Tris buffer (pH 8.0, 37° C.) to provide a final concentration of 5 μM. Two equivalents of the 5′-DABCYL-DNA oligonucleotide were added, and the mixture was heated to 90° C. for 5 min and cooled slowly to room temperature to allow duplex formation. The positioning of the fluorescein donor at the 3′-end of the RNA oligonucleotide and the DABCYL acceptor at the 5′-end of the DNA oligonucleotide provides a very close proximity of the donor and acceptor that results in a very intense quenching of the fluorescein emission in the intact RNA/DNA hybrid duplex substrate due to the spectral overlap of the fluorescence emission of fluorescein with the absorption spectrum of DABCYL. In addition, DABCYL is non-fluorescent, and thus cannot contribute any light emission. Both of these factors result in a very low background and provide a high signal-to-noise in the assay measurements. The ratio of the donor fluorescence in the absence and in the presence of its quencher is approximately fifteen-fold.
Microplate Assay Protocol for the Measurement of RNase H Activity Using the RNA/IDNA Hybrid Duplex Substrate.
Reaction assay mixtures contained 5 μl of a stock solution of 2.5 μM RNA/DNA hybrid duplex substrate added to 85 μl of assay buffer (50 mM Tris, pH 8.0, 37° C., containing 60 mM KCl and 2.5 mM MgCl2), prepared in the wells of a 96-well fluorescence microtiter plate, and warmed to 37° C. using the temperature control of the SpectraMax Gemini XS microplate spectrofluorometer (Molecular Devices). Reactions were started by the addition of 5 μl of a solution of recombinant HIV-1 reverse transcriptase (usually providing a final concentration of 2.5 nM of the p51/p66 RT heterodimer in the assay), and mixing using the automatic mixing function of the microplate spectrofluorometer. […]

Compound	inhibition at 20 µM [%]	% inhibition of RNase H at 20 μM [%]
CCCCc1c2c(nc3ccc(OC(F)(F)F)cc13)-c1cc(C(C)O)c(C)c(=O)n1C2 (stereo not drawn) [Compound 1.6.7, 12-Butyl-7-(1-hydroxyethyl)-8-methyl-2-trifluoromethoxy-11H-indolizino[1,2-b]quinolin-9-one]	75	–
Cc1c(C(C)O)cc2n(c1=O)Cc1c-2nc2ccc(OC(F)(F)F)cc2c1-c1ccccc1 (stereo not drawn) [Compound 1.8.7, 7-(1-Hydroxyethyl)-8-methyl-12-phenyl-2-trifluoromethoxy-11H-indolizino[1,2-b]quinolin-9-one]	80	–
Cc1ccc2nc3c(c(-c4ccccc4)c2c1)Cn1c-3cc(C(C)O)c(C)c1=O (stereo not drawn) [Compound 1.8.9, 7-(1-Hydroxyethyl)-2,8-dimethyl-1 2-phenyl-11H-indolizino[1,2-b]quinolin-9-one]	75	–
CCCCc1c2c(nc3ccc(OC)cc13)-c1cc(C(O)CCC)c(C)c(=O)n1C2 (stereo not drawn) [Compound 2.6.3]	–	67
CCCCCc1c2c(nc3ccc(OC)cc13)-c1cc(C(O)CCC)c(C)c(=O)n1C2 (stereo not drawn) [Compound 2.7.3]	–	60
CCCC(O)c1cc2n(c(=O)c1C)Cc1c-2nc2ccccc2c1-c1ccccc1 (stereo not drawn) [Compound 2.8.1, 7-(1-Hydroxybutyl)-8-methyl-12-phenyl-11H-indolizino [1,2-b]quinolin-9-one]	83	–
CCCC(O)c1cc2n(c(=O)c1C)Cc1c-2nc2ccc(C)cc2c1-c1ccccc1 (stereo not drawn) [Compound 2.8.9, 7-(1-Hydroxybutyl)-2,8-dimethyl-1 2-phenyl-11H-indolizino[1,2-b]quinolin-9-one]	78	–
CCCCc1c2c(nc3ccc(OC)cc13)-c1cc(C(O)CC)c(C)c(=O)n1C2 (stereo not drawn) [Compound 3.6.3]	–	66
CCCCc1c2c(nc3ccc(C(F)(F)F)cc13)-c1cc(C(O)CC)c(C)c(=O)n1C2 (stereo not drawn) [Compound 3.6.4]	–	62
CCCCCc1c2c(nc3c(F)cccc13)-c1cc(C(O)CC)c(C)c(=O)n1C2 (stereo not drawn) [Compound 3.7.8, 4-Fluoro-7-(1-hydroxypropyl)-8-methyl-12-pentyl-1 1H-indolizino [1,2-b]quinolin-9-one]	82	–
CCCCCc1c2c(nc3ccc(C)cc13)-c1cc(C(O)CC)c(C)c(=O)n1C2 (stereo not drawn) [Compound 3.7.9, 7-(1-Hydroxypropyl)-2,8-dimethyl-1 2-pentyl-11H-indolizino[1,2-b]quinolin-9-one]	75	–
CCC(O)c1cc2n(c(=O)c1C)Cc1c-2nc2ccccc2c1-c1ccccc1 (stereo not drawn) [Compound 3.8.1]	–	74
CCC(C)C(O)c1cc2n(c(=O)c1C)Cc1cc3cc(OC(F)(F)F)ccc3nc1-2 (stereo not drawn) [Compound 4.1.7]	–	55
CCc1c2c(nc3ccc(C)cc13)-c1cc(C(O)C(C)CC)c(C)c(=O)n1C2 (stereo not drawn) [Compound 4.4.9]	–	60
CCCc1c2c(nc3c(F)cccc13)-c1cc(C(O)C(C)CC)c(C)c(=O)n1C2 (stereo not drawn) [Compound 4.5.8]	–	55
CCCCCc1c2c(nc3ccc(F)cc13)-c1cc(C(O)C(C)CC)c(C)c(=O)n1C2 (stereo not drawn) [Compound 4.7.2]	–	58
CCCCCc1c2c(nc3ccc(OC)cc13)-c1cc(C(O)C(C)CC)c(C)c(=O)n1C2 (stereo not drawn) [Compound 4.7.3]	–	60
CCCCCc1c2c(nc3ccc(C(F)(F)F)cc13)-c1cc(C(O)C(C)CC)c(C)c(=O)n1C2 (stereo not drawn) [Compound 4.7.4]	–	55

Compound	inhibition at 20 µM [%]	% inhibition of RNase H at 20 μM [%]
CCCCCc1c2c(nc3ccc(CC)cc13)-c1cc(C(O)C(C)CC)c(C)c(=O)n1C2 (stereo not drawn) [Compound 4.7.5, 2-Ethyl-7-(1-hydroxy-2-methylbutyl)-8-methyl-1 2-pentyl-11H-indolizino[1,2-b]quinolin-9-one]	100	–
CCC(C)C(O)c1cc2n(c(=O)c1C)Cc1c-2nc2ccccc2c1-c1ccccc1 (stereo not drawn) [Compound 4.8.1, 7-(1-Hydroxy-2-methylbutyl)-8-methyl-1 2-phenyl-11H-indolizino[1,2-b]quinolin-9-one]	80	–
CCC(C)C(O)c1cc2n(c(=O)c1C)Cc1c-2nc2ccc(C(F)(F)F)cc2c1-c1ccccc1 (stereo not drawn) [Compound 4.8.4]	–	74
CCC(C)C(O)c1cc2n(c(=O)c1C)Cc1c-2nc2ccc(C)cc2c1-c1ccccc1 (stereo not drawn) [Compound 4.8.9]	–	55
CCc1c2c(nc3ccc(C(F)(F)F)cc13)-c1cc(C(O)C(C)C)c(C)c(=O)n1C2 (stereo not drawn) [Compound 5.4.4, 1 2-Ethyl-7-(1-hydroxy-2-methylpropyl)-8-methyl-2-trifluoromethyl-11H-indolizino[1,2-b]quinolin-9-one]	87	–
CCCCc1c2c(nc3c1cn1c(=O)c(C)c(C(O)C(C)C)cc31)=CC=C(OC)C2 (stereo not drawn) [Compound 5.6.3, 12-Butyl-7-(1-hydroxy-2-methylpropyl)-2-methoxy-8-methyl-1H-indolizino[1,2-b]quinolin-9-one]	90	–
CCCCc1c2c(nc3ccc(CC)cc13)-c1cc(C(O)C(C)C)c(C)c(=O)n1C2 (stereo not drawn) [Compound 5.6.5]	–	100
Cc1ccc2nc3c(c(-c4ccccc4)c2c1)Cn1c-3cc(C(O)C(C)C)c(C)c1=O (stereo not drawn) [Compound 5.8.9]	–	69
Cc1ccc2nc3c(cc2c1)Cn1c-3cc(C(O)C2CCCCC2)c(C)c1=O (stereo not drawn) [Compound 6.1.9]	–	65
CCc1c2c(nc3ccccc13)-c1cc(C(O)C3CCCCC3)c(C)c(=O)n1C2 (stereo not drawn) [Compound 6.4.1]	–	65
CCc1c2c(nc3ccc(F)cc13)-c1cc(C(O)C3CCCCC3)c(C)c(=O)n1C2 (stereo not drawn) [Compound 6.4.2]	–	75
CCc1c2c(nc3ccc(OC)cc13)-c1cc(C(O)C3CCCCC3)c(C)c(=O)n1C2 (stereo not drawn) [Compound 6.4.3]	–	60
CCc1c2c(nc3ccc(C(F)(F)F)cc13)-c1cc(C(O)C3CCCCC3)c(C)c(=O)n1C2 (stereo not drawn) [Compound 6.4.4]	–	65
CCCCCc1c2c(nc3ccccc13)-c1cc(C(O)C3CCCCC3)c(C)c(=O)n1C2 (stereo not drawn) [Compound 6.7.1]	–	71
CCCCCc1c2c(nc3ccc(F)cc13)-c1cc(C(O)C3CCCCC3)c(C)c(=O)n1C2 (stereo not drawn) [Compound 6.7.2, 7-(Cyclohexylhydroxymethyl)-2-fluoro-8-methyl-12-pentyl-11H-indolizino[1,2-b]quinolin-9-one]	76	–
CCCCCc1c2c(nc3ccc(OC)cc13)-c1cc(C(O)C3CCCCC3)c(C)c(=O)n1C2 (stereo not drawn) [Compound 6.7.3]	–	65
CCCCCc1c2c(nc3ccc(C(F)(F)F)cc13)-c1cc(C(O)C3CCCCC3)c(C)c(=O)n1C2 (stereo not drawn) [Compound 6.7.4]	–	70
Cc1c(C(O)C2CCCCC2)cc2n(c1=O)Cc1c-2nc2ccc(C(F)(F)F)cc2c1-c1ccccc1 (stereo not drawn) [Compound 6.8.4, 7-(Cyclohexylhydroxymethyl)-8-methyl-12-phenyl-2-trifluoromethyl-11H-indolizino[1,2-b]quinolin-9-one]	81	–
